# Measurements reported in patent US8114412B2, “T. cruzi-derived neurotrophic agents and methods of use therefor” (priority 1999, dated 2012).
# Entries after “also recorded” stand apart in the source; their conditions may differ.
# Tests used:
# PC12 cells [1] = experiment: Neurite outgrowth assay in PC12 cells; type: cell-based, rat
# Excerpt: (§1) PC12 cells were obtained from ATCC (Manassas, Va. (Accession No. CRL-1721)) and cultured on collagen-coated dishes in RPMI 1640 supplemented with 10% horse serum and 5% fetal bovine serum (Greene, L. A. and Tishler, A. S., Proc. Natl. Acad. Sci. USA, 73: 2424-2428 (1976)). For differentiation and survival experiments, cells were washed three times in serum-free RPMI/0.2% BSA, plated in the same medium in collagen-coated plastic dishes at 2×10^5/ml, without and with growth factors, TS, recombinant proteins, synthetic peptides, for the time and concentrations indicated in the Figures.
# 96-well microtiter plates were coated overnight at 4° C. with the TS or peptides or fragments thereof, or with control proteins laminin (Ln) or bovine serum albumin (BSA) at 500 μg/ml. After removing the compounds, the plates were further incubated with 1% BSA for 1 hour at room temperature and immediately used as substratum for PC12 or N18 (Prasad, K. N., Biol Rev Camb Philos Soc, 66:431-451 (1991)) cells in serum-free RPMI/0.2% BSA. Neurite outgrowth was measured using a phase-contrast microscope 17 hours later.
# PC12 cells [2] = experiment: Trophic factor withdrawal-induced apoptosis of PC12 cells (DAPI/TUNEL); type: cell-based, rat; settings: for inhibition of apoptosis of PC12 cells by peptides: further studies; for protection of PC12 cells from apoptosis induced by trophic factor withdrawal: 17 hours
# Excerpt: as §1
# Cell staining with 4,6-diamino-2-phenylindole (DAPI). Cells were fixed with 4% formaldehyde in PBS for 5 minutes, washed with PBS, stained with 10 μg/ml DAPI (Sigma) for 2 minutes, washed with PBS, and visualized under UV light using a fluorescent microscope. About 300-400 cells were examined under the microscope to determine the percentage of apoptotic cells.
# Cell DNA nick end labeling (TUNEL) (Gavrieli, Y., et al., J. Cell. Biol. 119: 493-501 (1992)) assay was performed using a kit purchased from Boehringer Mannheim as described by the manufacturer.
# (§2) Protection against apoptosis of PC12 cells in serum-free medium containing a test agent (agent N)(e.g., protection induced by TS, TS fragments, NGF or other growth factors), was calculated by the formula: 100%-[(apoptosis(%) of cells kept in RPMI containing test agent N÷apoptosis (%) of cells kept in RPMI)×100%]. Testing the effect of wortmannin (Sigma) and LY294002 (Sigma) in inhibiting the neuroprotection of TS was performed following the protocol described by others (Yao and Cooper, Science, 267:2003-2006 (1995); D'Mello et al., J. Neurosci 17:1548-1560 (1997)). In brief, PC12 cells were switched from growth medium to RPMI without and with TS or various other growth factors. After 24 hr, wortmannin and LY294002 were added to the cultures. After another 24 hrs, cells were examined for apoptosis by the DAPI assay, as above.
# human Schwann cells = experiment: Serum withdrawal-induced apoptosis of immortalized human Schwann cells (DAPI); type: cell-based; settings: for inhibition of apoptosis of Schwann cells by peptides: further studies
# [3] = tested on: peripheral blood mononuclear cells (PBMC); experiment: IL-6 secretion by PBMC (ELISA); type: cell-based, human; set-up: IL-6 secretion by PBMC: dose or concentration left out as unconfirmed; settings: 24 hrs culture
# Protocol: (§3) Primary cultures of human intestinal microvascular endothelial cells (HIMEC) isolated from normal jejunal mucosa/submucosal tissue were prepared as described (Strong et al., Gastroenterology 114: 1244-1256 (1998)). The HIMEC were cultured in fibronectin-coated plasticware in MCDB medium (Sigma) supplemented with 20% FBS, 90 μg/ml heparin and 50 μg/ml endothelial cell growth factor (Sigma). T-24 cells (ATCC Accession No. HTB-4) were cultured in M199 medium supplemented with 10% FBS. PBMC were purified by Ficoll-Paque gradient as described (Current Protocols in Immunology, pp 7.1.1-7.1.2). Vero cells (ATCC Accession No. CCL-81) were grown in RPMI medium with 5% Nu serum and infected with the Silvio X-10/4 of T. cruzi as described previously (Chuenkova et al., J. Exp. Med. 181: 1693-1703, (1995)).
# Endothelial cells and T-24 cells were plated on 24-well plates at a density of 1×10^3 cells/well, while peripheral blood mononuclear cells (PBMC) were plated in the similar wells at 1×10^6/well. Triplicat cultures of cells were incubated test agents for a predetermined amount of time. […] Cytokines and chemokines released in the culture supernatants were measured by ELISA assay following the instructions of the manufacturer (Endogen). The cytokines tested were IL-1β, IL-4, IL-8, IL-10, IL-12, IFN-γ, TNF-α, and the chemokines RANTES and MCP-1. Negative controls were cells incubated in medium containing polymixin B at 10 μg/ml, and positive controls were cells incubated with bacterial LPS at the low ng/ml range (for PBMC or HIMEC) or in the μg/ml range for carcinoma T-24 cells. In some experiments, IL-1β, or TNFα were used as positive control for cytokine release.
# TR peptides (Table 2) were synthesized at the Tufts Synthesis Facility (Boston, Mass.). Each peptide was purified by HPLC, and the number of amino acids and molecular weight of each peptide verified by mass spectrometry. Peptides were dissolved in growth medium (10% FCS in RPMI) and added at various concentrations to 1×10^6 PBMC/well in 24-well plates. After 24 hrs, IL-6 was assayed by ELISA in the conditioned supernatants.
# [4] = tested on: primary cultures of rat Schwann cells; settings: reported (Weiner and Chun 1999); cited from earlier work
# [5] = tested on: human intestinal microvascular endothelial cells (HIMEC); experiment: IL-6 secretion by HIMEC (ELISA); type: cell-based; settings: 24 hrs culture
# Protocol: as §3
# Endothelial cells and T-24 cells were plated on 24-well plates at a density of 1×10^3 cells/well, while peripheral blood mononuclear cells (PBMC) were plated in the similar wells at 1×10^6/well. Triplicat cultures of cells were incubated test agents for a predetermined amount of time. […] Cytokines and chemokines released in the culture supernatants were measured by ELISA assay following the instructions of the manufacturer (Endogen). The cytokines tested were IL-1β, IL-4, IL-8, IL-10, IL-12, IFN-γ, TNF-α, and the chemokines RANTES and MCP-1. […]
# N18 cells = experiment: Neurite outgrowth assay in N18 cells; type: cell-based; settings: immobilized proteins coated at 500 μg/ml, 17 hours (FIG. 3A)
# Protocol: FIG. 3A is a graph showing that neurite outgrowth in N18 cells is induced by immobilized laminin (Ln), immobilized TS and immobilized fragments of TS. Proteins were immobilized by incubating plates which contained wells filled with solutions of the proteins (protein concentration was 500 μg/ml) at 4° C. overnight. The protein solutions were removed and the plates were further incubated with 1% BSA at room temperature for one hour. N18 cells were cultured in the coated wells in serum-free RPMI-1640/0.2% BSA for 17 hours, and neurite outgrowth was measured by phase-contrast microscopy. […] Ln, laminin; TS, purified T. cruzi trans-sialidase; 7F, recombinant TS from clone 7F; 19Y, recombinant TS from clone 19Y; TS-F, recombinant fragment consisting of amino acid residues 33-666 of TS (SEQ ID NO:2); TS-CC-47, recombinant fragment consisting of amino acid residues 79-478 of TS (SEQ ID NO:2); TS-Cat-47, recombinant fragment consisting of amino acid residues 79-415 of TS (SEQ ID NO:2); BSA, bovine serum albumin.
# 96-well microtiter plates were coated overnight at 4° C. with the TS or peptides or fragments thereof, or with control proteins laminin (Ln) or bovine serum albumin (BSA) at 500 μg/ml. […] Neurite outgrowth was measured using a phase-contrast microscope 17 hours later.
# normal human neutrophils = experiment: IL-6 production by normal human neutrophils; type: cell-based
# PC12 cells [6] = experiment: Reversal of TS-induced neuroprotection by PI-3 kinase inhibitors in PC12 cells; type: cell-based, rat; set-up: neuronal viability relative to TS-F without wortmannin / neuronal viability relative to TS-F+CNTF without wortmannin: dose or concentration left out as unconfirmed
# Protocol: as §2
# [7] = neurite outgrowth assay, concentration not given
# [8] = synthetic peptides 1 μM, DAPI (FIG. 6B)
Molecule,neurite outgrowth in PC12 cells (PC12 cells [1]; [7]),"apoptosis suppressing effect of peptide in presence of PI-3 kinase inhibitor LY294002, PC12 cells (PC12 cells [2])",inhibition of apoptosis of PC12 cells by peptides (PC12 cells [2]),"apoptosis suppressing effect of peptide in presence of PI-3 kinase inhibitor LY294002, Schwann cells (human Schwann cells)",inhibition of apoptosis of Schwann cells by peptides (human Schwann cells),also measured
RQRLPKRMGGSYRC [peptide C14],had direct neurotrophic activity; also recorded: induce dose dependent outgrowth of neurites,inhibited,potent suppressors of apoptosis,inhibited,potent suppressors of apoptosis,protection of PC12 cells from apoptosis induced by trophic factor withdrawal (PC12 cells [2]; [8]): protected PC12 cells from apoptosis
DSSAHGAPSTPA [peptide TR1],–,–,–,–,–,IL-6 secretion by PBMC [3]: less active
lysophosphatidic acid,–,–,–,–,–,active dose for primary cultures of rat Schwann cells [4]: ≥ 10 nM
DSSAHGAPSTPADSSAHGTPSTPVDSSAHGTPSTPADSSAHSTPSTPADSSAHSTPSTPA [TR5],–,–,–,–,–,IL-6 secretion by PBMC [3]: active in promoting IL-6 release
DSSAHGAPSTPADSSAHGTPSTPV [TR2],–,–,–,–,–,IL-6 secretion by PBMC [3]: less active
"YSVDDGETWE [peptide B2, control peptide]",did not induce neurite outgrowth; also recorded: did not promote neurite outgrowth,–,did not inhibit apoptosis,–,did not inhibit apoptosis,–
DSSAHGAPSTPADSSAHGTPSTPVDSSAHGTPSTPA [TR3],–,–,–,–,–,IL-6 secretion by PBMC [3]: less active
GNASQNVWEDAYRCVNASTAN [C19Y21],–,inhibited,potent suppressors of apoptosis,inhibited,potent suppressors of apoptosis,–
"VCNA: neuraminidase from Vibrio cholera, Calbiochem [reference compound]",did not induce neurite outgrowth,–,–,–,–,"neurite outgrowth in PC12 cells (PC12 cells [1]; soluble in serum-free RPMI-1640/0.2% BSA, collagen coated dishes, 16 hours, NGF 0.1 μg/ml, VCNA 2.4 μg/ml, TS 1 μg/ml): does not induce neurite outgrowth; protection of PC12 cells from apoptosis induced by trophic factor withdrawal (PC12 cells [2]; serum-free RPMI-1640/0.2% BSA, DAPI or TUNEL): did not; IL-6 secretion by HIMEC [5]: did not stimulate detectable IL-6 secretion"
laminin [reference compound],–,–,–,–,–,neurite outgrowth in N18 cells (N18 cells): induced
GNASQNYWEDAYRC [CYN2],–,inhibited,suppressed apoptosis but was less active,inhibited,suppressed apoptosis but was less active,–
"DSSAHGTPSTPA [peptide TR, control peptide derived from the tandem repeat]",did not induce neurite outgrowth; also recorded: did not promote neurite outgrowth,–,did not inhibit apoptosis,–,did not inhibit apoptosis,–
TNF-A,–,–,–,–,–,IL-6 production by normal human neutrophils (normal human neutrophils): did elicit secretion of IL-6
VNASTAN [CYFN],–,inhibited,did not inhibit apoptosis,inhibited,did not inhibit apoptosis,–
QPLRRQRVVVVPLSPRLVLLAFCRQRLPLKRMGGSYRCVNASTAN [peptide C44],had direct neurotrophic activity; also recorded: induce dose dependent outgrowth of neurites,inhibited,potent suppressors of apoptosis,inhibited,potent suppressors of apoptosis,protection of PC12 cells from apoptosis induced by trophic factor withdrawal (PC12 cells [2]; [8]): protected PC12 cells from apoptosis
COC[C@H]1OC(=O)c2coc3c2[C@@]1(C)C1=C(C3=O)[C@@H]2CCC(=O)[C@@]2(C)C[C@H]1OC(C)=O [wortmannin],–,–,–,–,–,neuronal viability relative to TS-F without wortmannin (PC12 cells [6]; wortmannin with TS-F): 57±2%; neuronal viability relative to TS-F+CNTF without wortmannin (PC12 cells [6]; wortmannin with TS-F+CNTF): 80±3%
DSSAHGAPSTPADSSAHGTPSTPVDSSAHGTPSTPADSSAHSTPSTPA [TR4],–,–,–,–,–,IL-6 secretion by PBMC [3]: active in promoting IL-6 release
RQRLPKRMGGSYRCVNASTAH [CFN1],had direct neurotrophic activity,inhibited,potent suppressors of apoptosis,inhibited,potent suppressors of apoptosis,–
